Among the data in ChEMBL document CHEMBL2007661, “Compounds: GSK PKIS; Assays: UNC Frye lab” (2012) are inhibition values, retold here.

The target of assay [1] is T1, Inhibitor of nuclear factor kappa-B kinase subunit beta (Homo sapiens) (UniProt O14920).
T1 sequence (whole entry): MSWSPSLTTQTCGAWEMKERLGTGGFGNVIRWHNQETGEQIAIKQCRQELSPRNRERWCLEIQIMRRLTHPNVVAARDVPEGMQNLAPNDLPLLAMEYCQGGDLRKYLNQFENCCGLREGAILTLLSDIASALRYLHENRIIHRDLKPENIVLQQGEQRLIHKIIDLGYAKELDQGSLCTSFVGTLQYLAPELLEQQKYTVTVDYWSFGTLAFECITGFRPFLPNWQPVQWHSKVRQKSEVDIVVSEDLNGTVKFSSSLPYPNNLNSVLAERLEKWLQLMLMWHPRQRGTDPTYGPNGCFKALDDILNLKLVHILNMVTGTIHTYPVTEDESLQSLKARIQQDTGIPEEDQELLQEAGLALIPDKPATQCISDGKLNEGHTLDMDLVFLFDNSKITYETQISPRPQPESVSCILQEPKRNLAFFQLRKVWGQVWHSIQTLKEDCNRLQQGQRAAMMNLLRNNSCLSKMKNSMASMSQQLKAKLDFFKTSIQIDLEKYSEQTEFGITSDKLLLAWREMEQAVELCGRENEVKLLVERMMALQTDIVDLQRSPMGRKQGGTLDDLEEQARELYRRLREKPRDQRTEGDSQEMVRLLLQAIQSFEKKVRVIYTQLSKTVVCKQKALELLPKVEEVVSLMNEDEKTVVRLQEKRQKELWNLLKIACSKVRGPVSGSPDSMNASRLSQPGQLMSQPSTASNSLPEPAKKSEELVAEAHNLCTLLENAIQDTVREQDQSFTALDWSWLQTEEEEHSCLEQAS
As to conditions: at 1 µM.

Assay [2] deals with T2, Tyrosine-protein kinase Mer (Homo sapiens) (UniProt Q12866).
T2 sequence (whole entry): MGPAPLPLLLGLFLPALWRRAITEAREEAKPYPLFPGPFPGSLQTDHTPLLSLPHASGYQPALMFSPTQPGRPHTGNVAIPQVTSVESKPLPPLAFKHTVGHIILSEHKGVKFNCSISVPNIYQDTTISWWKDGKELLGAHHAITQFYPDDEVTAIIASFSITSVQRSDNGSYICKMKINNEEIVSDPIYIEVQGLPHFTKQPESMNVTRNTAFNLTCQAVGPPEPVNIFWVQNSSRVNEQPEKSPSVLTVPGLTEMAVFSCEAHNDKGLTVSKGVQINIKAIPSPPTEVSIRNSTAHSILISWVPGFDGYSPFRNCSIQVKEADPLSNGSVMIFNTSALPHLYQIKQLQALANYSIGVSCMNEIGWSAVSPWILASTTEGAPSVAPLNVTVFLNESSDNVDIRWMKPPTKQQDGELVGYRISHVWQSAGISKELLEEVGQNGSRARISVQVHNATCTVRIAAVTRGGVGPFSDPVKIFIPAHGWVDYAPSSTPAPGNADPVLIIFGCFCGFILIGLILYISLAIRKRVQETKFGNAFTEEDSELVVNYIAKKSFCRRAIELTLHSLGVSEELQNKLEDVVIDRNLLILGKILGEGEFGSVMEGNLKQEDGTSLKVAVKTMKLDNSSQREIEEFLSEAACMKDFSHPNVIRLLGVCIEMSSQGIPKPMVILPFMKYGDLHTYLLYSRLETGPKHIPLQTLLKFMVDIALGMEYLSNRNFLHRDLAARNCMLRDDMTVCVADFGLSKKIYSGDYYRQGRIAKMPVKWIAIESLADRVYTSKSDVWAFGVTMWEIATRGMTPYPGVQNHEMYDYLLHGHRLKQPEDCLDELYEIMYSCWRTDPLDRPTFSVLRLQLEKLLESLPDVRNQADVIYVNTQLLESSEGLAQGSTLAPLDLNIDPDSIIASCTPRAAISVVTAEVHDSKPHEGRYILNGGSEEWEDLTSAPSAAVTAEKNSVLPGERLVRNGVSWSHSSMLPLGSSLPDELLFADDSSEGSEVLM
As to conditions: at 10 µM.

Assay [3] deals with T3, Serine/threonine-protein kinase TBK1 (Homo sapiens) (UniProt Q9UHD2).
T3 sequence (whole entry): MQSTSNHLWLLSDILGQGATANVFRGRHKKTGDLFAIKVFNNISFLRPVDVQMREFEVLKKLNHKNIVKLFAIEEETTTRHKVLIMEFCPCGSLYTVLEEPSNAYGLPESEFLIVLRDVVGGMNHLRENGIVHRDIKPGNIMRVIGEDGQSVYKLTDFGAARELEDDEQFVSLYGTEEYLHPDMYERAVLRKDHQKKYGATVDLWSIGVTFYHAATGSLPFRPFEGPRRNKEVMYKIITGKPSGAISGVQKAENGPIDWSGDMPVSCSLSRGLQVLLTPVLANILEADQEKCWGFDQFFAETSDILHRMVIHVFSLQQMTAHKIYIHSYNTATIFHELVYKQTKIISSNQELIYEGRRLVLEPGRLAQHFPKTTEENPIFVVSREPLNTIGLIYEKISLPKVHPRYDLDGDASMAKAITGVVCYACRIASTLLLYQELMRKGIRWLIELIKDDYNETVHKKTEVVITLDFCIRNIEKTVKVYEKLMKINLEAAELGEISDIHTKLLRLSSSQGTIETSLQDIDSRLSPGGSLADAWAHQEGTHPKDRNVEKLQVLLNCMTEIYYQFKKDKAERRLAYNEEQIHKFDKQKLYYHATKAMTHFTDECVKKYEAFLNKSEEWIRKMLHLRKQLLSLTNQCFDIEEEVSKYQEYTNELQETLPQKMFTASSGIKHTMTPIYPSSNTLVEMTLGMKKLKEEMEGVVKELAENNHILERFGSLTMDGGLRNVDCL
As to conditions: at 1 µM.

Structures are written as SMILES. Several values for one entry are separate records, joined by “and”; a condition that tells them apart may be missing. Equal entries are not always repeated.

The inhibition is the drop in the measured response relative to a control, in per cent. With `FC(F)(F)c1cccc(-c2nn3ncccc3c2-c2ccnc(Nc3ccc4c(c3)OCCO4)n2)c1`, the inhibition in assay [1] was -3% and -2%; in assay [2] it was -2%; in assay [3], 3% and 1%.
In the case of `CC(=O)NCc1cccc(C#Cc2cncnc2Nc2ccc(OCc3cccc(F)c3)c(Cl)c2)c1`, the inhibition is -3% and -4% in assay [1]; -7% in assay [2]; -6% and -7% in assay [3].
For the compound `Cc1cc(-c2ccccn2)cc(C)c1/C=C/c1cncc(-c2nn[nH]n2)c1`, the inhibition in assay [1] was -5% and -2%; in assay [2], -7%; in assay [3] it was -2% and -5%.
For `COc1ccccc1Nc1ncc(-c2ccccc2)o1`, the inhibition in assay [1] was 3% and 0%; in assay [2] it was 3%; in assay [3], 10% and 5%.
Regarding `Fc1ccc(-c2c(-c3ccncc3)nc3n2CCS3)cc1`, the inhibition in assay [1] was 0% and -2%; in assay [2] it was 10%; in assay [3], 2% and 3%.
For `CS(=O)(=O)CCNCc1cc(-c2cc3c(Nc4ccc(OCc5cccc(F)c5)c(Cl)c4)ncnc3s2)cs1`, the inhibition in assay [1] was -8% and 5%; in assay [2], -5%; in assay [3], 0%.
Turning to `c1ccc(-c2n[nH]cc2-c2ccnc(-c3ccc(OCCN4CCOCC4)cc3)c2)nc1`, the inhibition was -4% and -10% in assay [1]; -1% in assay [2]; -2% and -1% in assay [3].
With `CCS(=O)(=O)c1ccc(OC)c(Nc2ncc(-c3cccc(OC)c3)o2)c1`, the inhibition is 3% and 0% in assay [1]; -1% in assay [2]; 11% and 8% in assay [3].
Consider `CCCNc1cccc(-n2ncc3c(N/N=C/c4ccncc4)ncnc32)c1`, for which the inhibition is -3% and -2% in assay [1]; 1% in assay [2]; 18% in assay [3].
Consider `CNC(=O)c1cncc(/C=C/c2c(C)cccc2C)c1`, for which the inhibition in assay [1] is 1% and -2%; in assay [2] it was -3%; in assay [3], 3% and -1%.
In the case of `CN(C)CCOc1ccc(-c2cc(-c3ccc4c(c3)CCC4=NO)c(-c3ccncc3)o2)cc1`, the inhibition is -1% and -3% in assay [1]; 1% in assay [2]; 5% and 6% in assay [3].
With `Cc1ccc(C(=O)NC2CC2)cc1-c1ccc2[nH]ncc2c1`, the inhibition was 0% in assay [1]; 6% in assay [2]; 0% and 2% in assay [3].
As to `CN(C)CCOc1ccc(-c2nc(-c3ccncc3)c(-c3ccc4c(c3)CC/C4=N\O)[nH]2)cc1`, the inhibition in assay [1] was 0% and -1%; in assay [2], 3%; in assay [3], -3% and -1%.
Regarding `CS(=O)(=O)Nc1ccc(-c2ccc3c(NC(=O)C4CC4)n[nH]c3c2)cc1`, the inhibition in assay [1] is -3% and 2%; in assay [2], 1%; in assay [3], 3% and 5%.
On to `CN(C)c1cc2c(Nc3ccc4nc(Cc5ccccc5)[nH]c4c3)ncnc2cn1`, for which the inhibition in assay [1] is -2% and -3%; in assay [2] it was 2%; in assay [3], 2% and 6%.
Turning to `COc1cc2ncn(-c3cc(O[C@H](C)c4ccccc4Cl)c(C(N)=O)s3)c2cc1OC`, the inhibition in assay [1] is 0% and -8%; in assay [2], -8%; in assay [3], 2% and 0%.
In the case of `O=C1NC(=O)C(c2cccc(Cl)c2)=C1Nc1ccc(O)c(Cl)c1`, the inhibition was -6% and -9% in assay [1]; 99% in assay [2]; 58% and 55% in assay [3].
Regarding `O=C(Nc1n[nH]c2nc(-c3ccc(O)cc3)c(Br)cc12)C1CC1`, the inhibition in assay [1] is -4% and -2%; in assay [2] it was 39%; in assay [3] it was 37% and 33%.
In the case of `NC(=O)c1cccc(Nc2nccc(Nc3cccc4[nH]ncc34)n2)c1`, the inhibition in assay [1] is -2% and 2%; in assay [2], 79%; in assay [3], 45% and 44%.
As to `CCn1c(-c2nonc2N)nc2cncc(C(=O)NCCNC)c21`, the inhibition in assay [1] was 1% and -2%; in assay [2], 81%; in assay [3], 17% and 13%.
Turning to `COc1ccc(CNC(=O)c2ccc(-c3cc(-c4nnc(C)o4)ccc3C)cc2)cc1`, the inhibition in assay [1] is -2% and -3%; in assay [2], 3%; in assay [3], -6% and -5%.
Consider `CCS(=O)(=O)c1ccc(OC)c(Nc2ncc(-c3ccccc3Cl)o2)c1`, for which the inhibition in assay [1] is -7% and -4%; in assay [2], 6%; in assay [3] it was 2% and 6%.
`Cc1ccc(NC(=O)c2ccnc(N3CCCC3)c2)cc1-c1ccc(C(=O)NCC2CC2)cc1`: the inhibition in assay [1] is 2%; in assay [2] it was -1%; in assay [3], 33% and 39%.
On to `NS(=O)(=O)c1ccc(NC=C2C(=O)Nc3ccc4ncsc4c32)cc1`, for which the inhibition is -3% and -2% in assay [1]; -5% in assay [2]; 89% and 88% in assay [3].
Consider `CCn1c(-c2nonc2N)nc2c(C#CC(C)(C)O)nc(O[C@@H](CN)c3ccccc3)cc21`, for which the inhibition in assay [1] was -3% and -4%; in assay [2] it was -9%; in assay [3], 85% and 87%.
With `C/C(Nc1ccc(S(N)(=O)=O)cc1)=C1/C(=O)Nc2ccccc21`, the inhibition was -3% and -2% in assay [1]; -2% in assay [2]; 11% and 14% in assay [3].
In the case of `Cc1ccc(Nc2ccnc(Nc3cccc(C(N)=O)c3)n2)cc1O`, the inhibition is -3% and -2% in assay [1]; 93% in assay [2]; 27% in assay [3].
In the case of `Fc1ccc(-c2cc(-c3c[nH]nc3-c3ccccn3)ccn2)cc1`, the inhibition in assay [1] was -4% and -2%; in assay [2] it was -3%; in assay [3], -4% and -3%.
As to `COc1ccc2c(-c3ccnc(Nc4cccc(OC(F)(F)F)c4)n3)cnn2n1`, the inhibition in assay [1] was -3% and -2%; in assay [2] it was 2%; in assay [3] it was 49%.
On to `CCn1c(-c2nonc2N)nc2c(C#CC(C)(C)O)nc(CN3CCCC3)cc21`, for which the inhibition is -3% and 3% in assay [1]; -6% in assay [2]; 24% and 20% in assay [3].
As to `N#Cc1c(NC(=O)CN2CCOCC2)sc2c1CCCC2`, the inhibition in assay [1] was -1% and -3%; in assay [2] it was -1%; in assay [3], -6%.
Take `Cc1nnc(-c2ccc(C)c(-c3ccc(C(=O)NCc4ccc(Cl)cc4)cc3)c2)o1`: the inhibition in assay [1] was -2% and 0%; in assay [2] it was 92%; in assay [3], 3% and 4%.
For `COc1cc2ncn(-c3cc(OCc4cccs4)c(C(N)=O)s3)c2cc1OC`, the inhibition in assay [1] was -5% and -6%; in assay [2], 4%; in assay [3] it was 35% and 33%.
